Literature values, collected in patent US20210319872A1, “DRUG AND DEVICE COMBINATION PRODUCTS WITH IMPROVED SAFETY AND EFFICACY PROFILES” (priority 2016, published 2021).
Read-outs that look alike come from different tables or passages of the source.

In the case of `CCOC(=O)[C@H](CCc1ccccc1)N[C@H]1CCc2ccccc2N(CC(=O)O)C1=O` [Benazepril (Lotensin)], the “Angioedema, head and neck” value (in vivo) is listed as “Other: Angioedema, head and neck (0.5%)”, the Cough (in vivo) is listed as “Respiratory: Cough (1.2%)” and the Dizziness (in vivo) is listed as “Neurologic: Dizziness (3.6%), Headache (6.2%)”. The Fatigue (in vivo) was “Other: Fatigue (2.4%)”, the Headache (in vivo) was “Neurologic: Dizziness (3.6%), Headache (6.2%)” and the Stevens-Johnson syndrome (in vivo) was “Dermatologic: Stevens-Johnson syndrome (less than 1%)”.
In the case of `CCOC(=O)[C@H](CCc1ccccc1)N[C@@H](C)C(=O)N1CCC[C@H]1C(=O)O` [Enalapril (Vasotec)], the Angioedema (in vivo) is listed as “Other: Angioedema (0.1% to 1%)”, the Dizziness (in vivo) is listed as “Neurologic: Dizziness (4.3% to 7.9%)” and the Fatigue (in vivo) is listed as “Other: Fatigue (3%)”. For the same compound, the Hyperkalemia (in vivo) was “Endocrine metabolic: Hyperkalemia (1% to 3.8%)”, the Hypotension (in vivo) was “Cardiovascular: Hypotension (0.9% to 6.7%)” and the Serum creatinine raised (in vivo) was “raised (0.2% (hypertension) to 20% (hypertension with renal artery”.
In the case of `C=CCC1(C(C)CCC)C(=O)NC(=O)NC1=O` (stereo not shown) [Seconal (secobarbital)], the “Complex mannerisms - behavior” value (in vivo) is given as “Psychiatric: Complex mannerisms - behavior (Less than 1%.)”, the Liver damage (in vivo) is given as “Hepatic: Liver damage (less than 1%)” and the “Megaloblastic anemia, With prolonged use” value (in vivo) is given as < 1%). The “Serious side effect, Other” value (in vivo) was “Other: Drug dependence, Withdrawal sign or symptom” and the Somnolence (in vivo) was “Neurologic: Somnolence (1% to 3%)”.
In the case of `COc1ccc([C@@H]2Sc3ccccc3N(CCN(C)C)C(=O)[C@@H]2OC(C)=O)cc1` [Diltiazem (Cardizem, Tiazac)], the Bradyarrhythmia (in vivo) is given as “Cardiovascular: Bradyarrhythmia (1.7% to 3.6%), Peripheral”, the Congestive heart failure (in vivo) is given as “Cardiovascular: Congestive heart failure (less than 2%), Heart” and the Cough (in vivo) is given as “Respiratory: Cough (2%)”. For the same compound, the Dizziness (in vivo) was “Neurologic: Dizziness (3.5% to 6.4%), Headache (4.6%)”, the Fatigue (in vivo) was “Other: Fatigue (4.8%)” and the Headache (in vivo) was “Neurologic: Dizziness (3.5% to 6.4%), Headache (4.6%)”. For the same compound, the Peripheral edema (in vivo) was “edema (4.6% to 8%)”.
For `CC1Cc2ccccc2N1NC(=O)c1ccc(Cl)c(S(N)(=O)=O)c1` (stereo not shown) [Indapamide (Lozol)], the “Dizziness (incidence)” value (in vivo) is listed as “Neurologic: Asthenia, Dizziness (Greater than or equal to 5%),”, the “Headache (incidence)” value (in vivo) is listed as “Headache (Greater than or equal to 5%), Lethargy, Numbness” and the “Hypokalemia (incidence)” value (in vivo) is listed as “Endocrine metabolic: Hypokalemia (3% to 7%)”.
In the case of `Clc1ccccc1CN1CCc2sccc2C1` [Ticlopidine], the Neutropenia (in vivo) is listed as 2.4%.
In the case of `CN[C@H]1CC[C@@H](c2ccc(Cl)c(Cl)c2)c2ccccc21` [Sertraline (Zoloft)], the Abnormal ejaculation (in vivo) is listed as “Reproductive: Abnormal ejaculation (7% to 19%), Reduced libido”, the Constipation (in vivo) is listed as “Gastrointestinal: Constipation (3% to 8%), Diarrhea (13% to 24%),” and the Diarrhea (in vivo) is listed as “Gastrointestinal: Constipation (3% to 8%), Diarrhea (13% to 24%),”. The Dizziness (in vivo) was “Neurologic: Dizziness (6% to 17%), Headache (25%), Insomnia”, the Fatigue (in vivo) was “Other: Fatigue (10% to 16%)” and the Headache (in vivo) was “Neurologic: Dizziness (6% to 17%), Headache (25%), Insomnia”. For the same compound, the Indigestion (in vivo) was “Indigestion (6% to 13%), Nausea (13% to 30%), Nausea and”, the Insomnia (in vivo) was “(12% to 28%), Somnolence (2% to 15%), Tremor (5% to 11%)” and the Nausea (in vivo) was “Indigestion (6% to 13%), Nausea (13% to 30%), Nausea and”. For the same compound, the Nausea and vomiting (in vivo) was “vomiting (2% to 30%)”, the Reduced libido (in vivo) was “(up to 11%)” and the Somnolence (in vivo) was “(12% to 28%), Somnolence (2% to 15%), Tremor (5% to 11%)”. For the same compound, the Tremor (in vivo) was “(12% to 28%), Somnolence (2% to 15%), Tremor (5% to 11%)”.
In the case of `Cc1ccsc1C(=CCCN1CCC[C@@H](C(=O)O)C1)c1sccc1C` [Gabitril], the Confusion (in vivo) is given as 5%, the Disturbance in speech (in vivo) is given as 4% and the Nausea (in vivo) is given as 11%. For the same compound, the Pruritus (in vivo) was “Dermatologic: Pruritus (2%)”, the “Serious side effect, Dermatologic” value (listed without frequency) was “Dermatologic: Stevens-Johnson syndrome” and the “Serious side effect, Neurologic” value (listed without frequency) was “Seizure, in patients without epilepsy”. For the same compound, the “Serious side effect, Psychiatric” value (listed without frequency) was “Psychiatric: Suicidal thoughts”.
In the case of `CCCC(C)C1(CC)C(=O)NC(=O)NC1=O` (stereo not shown) [Nembutal (pentobarbital)], the Agitation (in vivo) is given as “Psychiatric: Agitation (less than 1%)”, the Apnea (in vivo) is given as “Respiratory: Apnea (less than 1%), Hypoventilation (less than 1%)” and the Confusion (in vivo) is given as “Neurologic: Confusion (less than 1%), Dizziness (less than 1%),”. The Dizziness (in vivo) was “Neurologic: Confusion (less than 1%), Dizziness (less than 1%),”, the Hypoventilation (in vivo) was “Respiratory: Apnea (less than 1%), Hypoventilation (less than 1%)” and the Injury of liver (in vivo) was “Hepatic: Injury of liver (less than 1%)”. The Megaloblastic anemia (in vivo) was “Hematologic: Megaloblastic anemia (less than 1%)”, the Somnolence (in vivo) was “Somnolence (1% to 3%)” and the Stevens-Johnson syndrome (in vivo) was “Dermatologic: Stevens-Johnson syndrome (less than 1%)”.
For `CN1CC[C@]23c4c5ccc(O)c4O[C@H]2[C@@H](O)C=C[C@H]3[C@H]1C5` [morphine, reference compound], the “Drowsiness or Sedation” value (in vivo) is listed as “severe sedation and drowsiness”.
In the case of `CCCN[C@H]1CCc2nc(N)sc2C1` [Pramipexole (Mirapex)], the Amnesia (in vivo) is given as “Neurologic: Amnesia (4% to 6%), Asthenia (Immediate-release,”, the Asthenia (in vivo) is given as 10% to 14%; extended-release, 3%), Confusion (4% to 10%), and the Confusion (in vivo) is given as 10% to 14%; extended-release, 3%), Confusion (4% to 10%),. For the same compound, the Dizziness (in vivo) was “Dizziness (Immediate-release, 3% to 26%; extended-release, 2% to”, the Dream disorder (in vivo) was ≤ 12%), Dream disorder (Up to 11%), Dyskinesia (Immediate- and the Dyskinesia (in vivo) was “release, 18% to 47%; extended-release, 17%), Extrapyramidal”. For the same compound, the Extrapyramidal movements (in vivo) was “movements (28%), Headache (Immediate-release, 4% to 16%;”, the Hallucinations (in vivo) was “Psychiatric: Hallucinations (5% to 17%)” and the Sleep attack (in vivo) was “Neurologic: Sleep attack (2% to 6%), Somnolence (Immediate-”. The Somnolence (in vivo) was “release, 6% to 33%; extended-release, 15% to 36%)”.
For `CC(=O)O[C@]1(C(C)=O)CC[C@H]2[C@@H]3CCC4=CC(=O)CCC4=C3[C@@H](c3ccc(N(C)C)cc3)C[C@@]21C` [Ella], the Headache (in vivo) is given as “Neurologic: Headache (18% to 19%)”.
For `CC(NC(C)(C)C)C(=O)c1cccc(Cl)c1` (stereo not shown) [Bupropion (Wellbutrin)], the Abdominal pain (in vivo) is given as “Gastrointestinal: Abdominal pain (2% to 9%), Constipation (5% to”, the Agitation (in vivo) is given as “Psychiatric: Agitation (2% to 9%)” and the Confusion (in vivo) is given as “Neurologic: Confusion (major depressive disorder, 8%), Dizziness”. The Dizziness (in vivo) was “(6% to 11%), Headache (25% to 34%), Insomnia (11% to 20%)”, the Headache (in vivo) was “(6% to 11%), Headache (25% to 34%), Insomnia (11% to 20%)” and the Hostile behavior (in vivo) was “Hallucinations, Hostile behavior (major depressive disorder, 6%),”. For the same compound, the Insomnia (in vivo) was “(6% to 11%), Headache (25% to 34%), Insomnia (11% to 20%)”, the Nasopharyngitis (in vivo) was “Respiratory: Nasopharyngitis (seasonal affective disorder, 13%),” and the Nausea (in vivo) was 10%), Nausea (13% to 18%), Xerostomia (17% to 26%). For the same compound, the Pharyngitis (in vivo) was “Pharyngitis (major depressive disorder, 3% to 11%), Upper”, the Seizure (in vivo) was “Neurologic: Seizure (major depressive disorder, 0.1% to 0.4%)” and the Tachycardia (in vivo) was “Cardiovascular: Tachycardia (major depressive disorder, 11%)”. For the same compound, the Upper respiratory infection (in vivo) was “respiratory infection (seasonal affective disorder, 9%)”, the Weight gain (in vivo) was “Endocrine metabolic: Weight gain (2% to 9%), Weight loss (major” and the Weight loss (in vivo) was “depressive disorder, 14% to 19%)”. For the same compound, the Xerostomia (in vivo) was 10%), Nausea (13% to 18%), Xerostomia (17% to 26%).
For `O=C1CC2(CCCC2)CC(=O)N1CCCCN1CCN(c2ncccn2)CC1` [Buspirone (Buspar)], the Cerebrovascular accident (in vivo) is given as “Neurologic: Cerebrovascular accident (less than 0.1%)”, the Congestive heart failure (in vivo) is given as “Cardiovascular: Congestive heart failure (less than 0.1%),” and the Dizziness (in vivo) is given as “Neurologic: Dizziness (12%), Headache (6%), Somnolence (10%)”. The Feeling nervous (in vivo) was “Psychiatric: Feeling nervous (5%)”, the Headache (in vivo) was “Neurologic: Dizziness (12%), Headache (6%), Somnolence (10%)” and the Myocardial infarction (in vivo) was “Myocardial infarction (less than 0.1%)”. For the same compound, the Nausea (in vivo) was “Gastrointestinal: Nausea (8%)” and the Somnolence (in vivo) was “Neurologic: Dizziness (12%), Headache (6%), Somnolence (10%)”.
In the case of `COC(=O)C1=C(C)NC(C)=C(C(=O)OCC(C)C)C1c1ccccc1[N+](=O)[O-]` (stereo not shown) [Nisoldipine (Sular)], the Dizziness (in vivo) is listed as “Neurologic: Dizziness (5%), Headache (22%)”, the Headache (in vivo) is listed as “Neurologic: Dizziness (5%), Headache (22%)” and the Palpitations (in vivo) is listed as “Cardiovascular: Palpitations (3%), Peripheral edema (22%),”. The Peripheral edema (in vivo) was “Cardiovascular: Palpitations (3%), Peripheral edema (22%),”, the Pharyngitis (in vivo) was “Respiratory: Pharyngitis (5%), Sinusitis” and the “Serious side effects, listed without incidence or only as rare” value (in vivo) was “Cardiovascular: Myocardial infarction”. For the same compound, the Vasodilatation (in vivo) was “Vasodilatation (4%)”.
For `CC(C)NCC(O)COc1ccc(CC(N)=O)cc1` (stereo not shown) [Atenolol (Tenormin)], the Bradyarrhythmia (in vivo) is given as “Cardiovascular: Bradyarrhythmia (3% to 18%), Cold extremities”, the Cold extremities (in vivo) is given as “(12%), Hypotension (4% to 25%)” and the Depression (in vivo) is given as “Psychiatric: Depression (up to 12%)”. For the same compound, the Dizziness (in vivo) was “Neurologic: Dizziness (13%)”, the Fatigue (in vivo) was “Other: Fatigue (up to 26%)” and the Hypotension (in vivo) was “(12%), Hypotension (4% to 25%)”. The Pulmonary embolism (in vivo) was “Respiratory: Pulmonary embolism (1.2%)”.
For `OCCN(CCO)c1nc(N2CCCCC2)c2nc(N(CCO)CCO)nc(N3CCCCC3)c2n1` [Dipyridamole], the Bronchospasm (IV) is given as “Respiratory: Bronchospasm (IV, 0.2%)”, the Chest pain (IV) is given as “Cardiovascular: Chest pain (IV, up to 30%), Electrocardiogram” and the Dizziness (IV) is given as 11.8%. The Flushing (IV) was 3.4%, the Myocardial infarction (IV) was 0.1% and the Ventricular tachycardia (IV) was “tachycardia (IV, 0.2%)”. For the same compound, the Abdominal discomfort (oral) was “Gastrointestinal: Abdominal discomfort (oral, 6.1%)”, the Dizziness (oral) was 13.6% and the Headache (oral) was 2.3%. For the same compound, the Rash (oral) was 2.3%.
For `CNCCC(Oc1ccc(C(F)(F)F)cc1)c1ccccc1` (stereo not shown) [Fluoxetine (Prozac)], the Anxiety (in vivo) is listed as “Psychiatric: Anxiety (3% to 15%), Feeling nervous (3% to 14%)”, the Asthenia (in vivo) is listed as “Neurologic: Asthenia (7% to 21%), Dizziness (2% to 11%),” and the Diarrhea (in vivo) is listed as “Gastrointestinal: Diarrhea (8% to 18%), Indigestion (6% to 10%),”. For the same compound, the Dizziness (in vivo) was “Neurologic: Asthenia (7% to 21%), Dizziness (2% to 11%),”, the Feeling nervous (in vivo) was “Psychiatric: Anxiety (3% to 15%), Feeling nervous (3% to 14%)” and the Indigestion (in vivo) was “Gastrointestinal: Diarrhea (8% to 18%), Indigestion (6% to 10%),”. The Influenza-like symptoms (in vivo) was “Other: Influenza-like symptoms (3% to 12%)”, the Insomnia (in vivo) was “Insomnia (9% to 33%), Somnolence (5% to 17%), Tremor (3% to” and the Nausea (in vivo) was “Loss of appetite (3.8% to 17%), Nausea (12% to 29%), Xerostomia”. The Pharyngitis (in vivo) was “Respiratory: Pharyngitis (3% to 11%), Rhinitis (16% to 23%)”, the Rhinitis (in vivo) was “Respiratory: Pharyngitis (3% to 11%), Rhinitis (16% to 23%)” and the Seizure (in vivo) was “Neurologic: Seizure (0.2%)”. For the same compound, the Xerostomia (in vivo) was “(4% to 12%)”.
